Here are results for 25 compounds from PMC10975828, “Screening for Active Compounds of Acorus calamus against SARS-CoV-2 Viral Protease and Mechanism Prediction” (Pharmaceuticals, 2024).

Read-outs that look alike come from different tables or passages of the source.

One experiment concerns the target SARS-CoV-2 PLpro (Severe acute respiratory syndrome coronavirus 2, UniProt P0DTD1). Kind of experiment: SARS-CoV-2 PLpro inhibition assay (fluorescence, 96-well). Particulars: for percent inhibition of PLpro at 5 µM: read-out: Inhibition at 5 μM (%); for enzyme activity: 5 μM screening. It counts as biochemical.
A further experiment has as its target SARS-CoV-2 Mpro (Severe acute respiratory syndrome coronavirus 2, UniProt P0DTD1). Kind of experiment: SARS-CoV-2 Mpro inhibition assay (fluorescence, 96-well). As to conditions: for percent inhibition at 5 µM: read-out: Inhibition at 5 μM (%); for IC50: Mpro 1 µM, inhibitor 0–20 µM, substrate 20 µM; for enzyme activity: at a concentration of 5 μM. It counts as biochemical.

A further experiment has as its system PC12 cell. On the set-up: method as in PMID 28695650. Particulars: previous studies; cited from earlier work.
The mark [1] stands for this setting: PLpro, inhibitor 5 μM, substrate 1 μM, triplicate, 25 °C.
Setting [2] is: Mpro, inhibitor 5 μM, substrate 1 μM, triplicate, 25 °C.
The mark [3] stands for this setting: PLpro 1 µM, inhibitor 0–20 µM, substrate 20 µM, read-out: IC50.

For the compound `CC(=O)C1CCC2C1C(C(C)C)CCC2(C)O` (stereo not shown) [Compound 21, oplopanone A], the percent inhibition of PLpro at 5 µM at SARS-CoV-2 PLpro amounted to 33.9 ± 5.49%. For the same compound, at SARS-CoV-2 Mpro, the percent inhibition at 5 µM was 83.3 ± 4.06%.

Turning to `CC1=C[C@H]2[C@@H](C(C)C)CC[C@@](C)(O)[C@]2(O)[C@@H](O)C1` [Compound 14, calamentriol D], at SARS-CoV-2 PLpro, the percent inhibition of PLpro at 5 µM came out at 25.4 ± 1.43%. Moreover, the percent inhibition at 5 µM at SARS-CoV-2 Mpro was found to be 81.9 ± 1.31%.

On to `C=C1CC[C@@H]2[C@@](O)(C1)[C@H](C(C)C)CC[C@]2(C)O` [Compound 7, calamendiol], for which the percent inhibition of PLpro at 5 µM on SARS-CoV-2 PLpro (setting [1]) was determined as 20.1 ± 2.96%. The percent inhibition at 5 µM at SARS-CoV-2 Mpro (setting [2]) amounted to 78.58 ± 0.67%.

As for `C=C1CCC(C(C)C)C(O)C2C1CCC2(C)O` (stereo not drawn) [Compound 3, 4β,6β-dihydroxy-1α,5β(H)-guai-10(14)-ene], the percent inhibition of PLpro at 5 µM on SARS-CoV-2 PLpro is 11.3 ± 0.55%. Besides, the percent inhibition at 5 µM on SARS-CoV-2 Mpro came out at 74.7 ± 0.05%.

Take `CC(=O)CC[C@@]12CC(=O)O[C@]1(C(C)C)C(=O)C[C@@H]2C` [Compound 18, neo-acorane A]: the IC50 (commonly the concentration at which inhibition is half-maximal) at SARS-CoV-2 PLpro (setting [3]) turned out to be 1.89 ± 0.375 µM; at SARS-CoV-2 Mpro it was 0.63 ± 0.364 µM. Moreover, the percent inhibition of PLpro at 5 µM on SARS-CoV-2 PLpro (setting [1]) worked out at 31.7 ± 8.07%. In addition, at SARS-CoV-2 Mpro (Mpro), the enzyme activity result is “less than 50%”. In addition, on SARS-CoV-2 Mpro (setting [2]), the percent inhibition at 5 µM was 31 ± 1.26%.

For the compound `CC1=CC[C@H]2[C@](O)(C1)[C@@H](C(C)C)CC[C@@]2(C)O` [Compound 10, 1β,7β(H)-3-cadinadiene-6α,10α-diol], on SARS-CoV-2 PLpro, the percent inhibition of PLpro at 5 µM amounted to 26.6 ± 3.38%. Besides, the percent inhibition at 5 µM at SARS-CoV-2 Mpro amounted to 85.6 ± 0.88%.

As for calamusin H [Compound 8], on SARS-CoV-2 PLpro (setting [1]), the percent inhibition of PLpro at 5 µM was determined as 14.2 ± 0.93%. The same compound registered a percent inhibition at SARS-CoV-2 Mpro (setting [2]) of 81.7 ± 6.15%.

Regarding `CC(C)C1CCC(C)(O)C2CCC(C)(O)C2C1O` (stereo not shown) [Compound 4, teuclatriol], on SARS-CoV-2 PLpro, the percent inhibition of PLpro at 5 µM was found to be 11.8 ± 1.99%. For the same compound, at SARS-CoV-2 Mpro, the percent inhibition at 5 µM was determined as 87.19 ± 0.31%.

On to `CC(C)C(=O)[C@@]1([C@H](C)CC(=O)O)CC[C@@H](C)C(=O)C1` [Compound 19, acoric acid], for which the IC50 on SARS-CoV-2 PLpro (setting [3]) came to 1.45 ± 0.429 µM. The enzyme activity result at SARS-CoV-2 PLpro (PLpro) is given as “below 10%”. For the same compound, the percent inhibition of PLpro at 5 µM on SARS-CoV-2 PLpro (setting [1]) was determined as 7.9 ± 1.94%. For the same compound, the percent inhibition at 5 µM on SARS-CoV-2 Mpro (setting [2]) is 75.55 ± 0.24%.

Turning to `CC(C)C1CCC(C)(O)C2=C1C(=O)C(C)(O)CC2O` (stereo not shown) [Compound 13, menecubebane B], the IC50 on SARS-CoV-2 PLpro (setting [3]) amounted to 2.53 ± 0.885 µM; against SARS-CoV-2 Mpro, 1.72 ± 0.394 µM. Also, the percent inhibition of PLpro at 5 µM on SARS-CoV-2 PLpro (setting [1]) was determined as 24.9 ± 4.91%. Also, the enzyme activity entry at SARS-CoV-2 Mpro (Mpro) is listed as “less than 50%”. On SARS-CoV-2 Mpro (setting [2]), the percent inhibition at 5 µM turned out to be 41.1 ± 8.77%.

For the compound `COc1cc(OC)c(OC)cc1C=O` [Compound 24, 2,4,5-trimethoxybenzaldehyde], at SARS-CoV-2 PLpro, half-maximal inhibition (IC50) required 3.92 ± 1.29 µM and the percent inhibition of PLpro at 5 µM came out at 9.54 ± 0.61%. In addition, the enzyme activity entry on SARS-CoV-2 PLpro (PLpro) is recorded as “below 10%”. Further, the percent inhibition at 5 µM on SARS-CoV-2 Mpro is 68.9 ± 0.71%.

Turning to `CC1CC(=O)C(O)(C(C)C)C12CCC(C)(O)C(=O)C2` (stereo not shown) [Compound 20, calamusin D], the percent inhibition of PLpro at 5 µM on SARS-CoV-2 PLpro is 22.2 ± 3.58%. The percent inhibition at 5 µM at SARS-CoV-2 Mpro worked out at 79.7 ± 8.49%.

Regarding `CC(C)C1CCC(C)(O)C2CCC(C)(O)C2C1=O` [Compound 1, 1R,5R,7S-guaiane-4R,10R-diol-6-one], the enzyme activity entry at SARS-CoV-2 PLpro (PLpro) is reported as “below 10%”. Moreover, the percent inhibition of PLpro at 5 µM at SARS-CoV-2 PLpro (setting [1]) stood at 6.41 ± 0.43%. On SARS-CoV-2 Mpro (setting [2]), the percent inhibition at 5 µM came to 83.61 ± 0.01%.

Consider `CC1(O)CCC2C(C3C1CCC3(C)O)C2(C)C` (single isomer, unassigned; (-)) [Compound 5, (-)-alloaromadendrane-3β,9β-diol], for which the percent inhibition of PLpro at 5 µM on SARS-CoV-2 PLpro is 14.4 ± 0.88%. Besides, the percent inhibition at 5 µM at SARS-CoV-2 Mpro was 78.33 ± 0.25%.

In the case of `CC(C)(O)C[C@H]1CC[C@@]2(C)[C@H](O)CC[C@](C)(O)[C@H]12` [Compound 22, bullatantriol], at SARS-CoV-2 PLpro (setting [3]), the IC50 was 1.26 ± 0.321 µM. The enzyme activity entry on SARS-CoV-2 PLpro (PLpro) is “below 10%”. For the same compound, the percent inhibition of PLpro at 5 µM on SARS-CoV-2 PLpro (setting [1]) was found to be 10.6 ± 2.59%. The percent inhibition at 5 µM at SARS-CoV-2 Mpro (setting [2]) is 82.8 ± 1.58%.

In the case of `CC(C)C1CCC(C)(O)C2CCC(C)(O)C2C1=O` [1R,5R,7S-guaiane-4R,10R-diol-6-one], on SARS-CoV-2 PLpro (setting [3]), the IC50 was found to be 0.386 ± 0.118 µM.

As for `CC(C)[C@H]1CC[C@](C)(O)[C@H]2CC[C@@](O)(CO)C[C@]12O` [Compound 12, calamentriol C], at SARS-CoV-2 PLpro, the percent inhibition of PLpro at 5 µM was 25.8 ± 2.25%. Besides, at SARS-CoV-2 Mpro, the percent inhibition at 5 µM came out at 70.9 ± 1.17%.

Take `COc1cc2ccnc3c2c(c1O)-c1c-3cccc(OC)c1=O` [Compound 23, neo-tatarine]: the half-inhibitory concentration (IC50) at SARS-CoV-2 PLpro (setting [3]) came out at 0.743 ± 0.187 µM. For the same compound, the enzyme activity entry at SARS-CoV-2 PLpro (PLpro) is “below 10%”. At SARS-CoV-2 PLpro (setting [1]), the percent inhibition of PLpro at 5 µM amounted to 6.71 ± 3.23%. Moreover, the percent inhibition at 5 µM at SARS-CoV-2 Mpro (setting [2]) stood at 81.5 ± 3.65%. For the same compound, the “inhibitory effect on Aβ25-35-induced PC12 cell death” value in the experiment on PC12 cell is recorded as “significant inhibitory effect”.

As for `CC(C)C1CCC2(C)C(O)CCC(C)(O)C2C1O` (stereo not shown) [Compound 17, ananosmin], the percent inhibition of PLpro at 5 µM at SARS-CoV-2 PLpro came to 29.8 ± 1.54%. The percent inhibition at 5 µM at SARS-CoV-2 Mpro was 74.6 ± 5.21%.

Consider `C=C1CC[C@@H]2[C@@](O)(C1)[C@H](C(C)C)CC[C@@]2(C)O` [Compound 6, isocalamendiol], for which, at SARS-CoV-2 PLpro (setting [3]), the IC50 turned out to be 1.67 ± 0.496 µM. For the same compound, the enzyme activity entry on SARS-CoV-2 PLpro (PLpro) is “below 10%”. In addition, the percent inhibition of PLpro at 5 µM at SARS-CoV-2 PLpro (setting [1]) was determined as 6.89 ± 1.65%. Further, the percent inhibition at 5 µM on SARS-CoV-2 Mpro (setting [2]) worked out at 80.31 ± 0.79%.

Turning to `CC(C)[C@@H]1CCC(=O)C2=C1[C@H](O)[C@](C)(O)CC2` [Compound 15, oxyphyllenodiols A], the percent inhibition of PLpro at 5 µM at SARS-CoV-2 PLpro was 35.3 ± 2.35%. In addition, on SARS-CoV-2 Mpro, the percent inhibition at 5 µM was 79.3 ± 10.4%.

As to `CC(C)C1=CC[C@@]2(C)[C@H](O)CC[C@](C)(O)[C@@H]2C1` [Compound 16, oplodiol], the percent inhibition of PLpro at 5 µM at SARS-CoV-2 PLpro came to 33.6 ± 2.46%. The percent inhibition at 5 µM at SARS-CoV-2 Mpro turned out to be 78.2 ± 12.9%.

`CC(C)[C@@H]1CC[C@](C)(O)[C@@H]2CC[C@](C)(O)C[C@]21O` [Compound 11, calamentriol B]: the percent inhibition of PLpro at 5 µM at SARS-CoV-2 PLpro was 38.4 ± 7.04%. The percent inhibition at 5 µM on SARS-CoV-2 Mpro came to 80.5 ± 4.82%.

As for `CC1=CCC(C(C)C)C(O)C2C1CCC2(C)O` (stereo not drawn) [Compound 2, 4β,6β-dihydroxy-1α,5β(H)-guai-9-ene], the percent inhibition of PLpro at 5 µM at SARS-CoV-2 PLpro turned out to be 14 ± 1.95%. On SARS-CoV-2 Mpro, the percent inhibition at 5 µM was 85.9 ± 0.61%.

For `C=C1CC[C@@H]2[C@](C)(O)[C@H](O)C[C@H](C(C)C)[C@@]2(O)C1` [Compound 9, calamentriol A], the percent inhibition of PLpro at 5 µM at SARS-CoV-2 PLpro is 22.3 ± 4.83%. Further, the percent inhibition at 5 µM at SARS-CoV-2 Mpro was 82.9 ± 7.31%.
